PMC6943664 (Molecules, 2019)
Where “and” joins values, the source holds several entries; their conditions need not be identical. Equal values may be shown once.

How the values were obtained:
human recombinant MAO B = biological target: T1, human recombinant MAO B (Homo sapiens, UniProt P27338); assay: Human recombinant MAO B inhibition (kynuramine fluorescence); assay type: biochemical; conditions: human recombinant MAO; mean ±SEM of three independent experiments; read-out: MAO B IC50
T1 construct: purchased Sigma Aldrich, Milan, Italy
T1 sequence (P27338 1-520): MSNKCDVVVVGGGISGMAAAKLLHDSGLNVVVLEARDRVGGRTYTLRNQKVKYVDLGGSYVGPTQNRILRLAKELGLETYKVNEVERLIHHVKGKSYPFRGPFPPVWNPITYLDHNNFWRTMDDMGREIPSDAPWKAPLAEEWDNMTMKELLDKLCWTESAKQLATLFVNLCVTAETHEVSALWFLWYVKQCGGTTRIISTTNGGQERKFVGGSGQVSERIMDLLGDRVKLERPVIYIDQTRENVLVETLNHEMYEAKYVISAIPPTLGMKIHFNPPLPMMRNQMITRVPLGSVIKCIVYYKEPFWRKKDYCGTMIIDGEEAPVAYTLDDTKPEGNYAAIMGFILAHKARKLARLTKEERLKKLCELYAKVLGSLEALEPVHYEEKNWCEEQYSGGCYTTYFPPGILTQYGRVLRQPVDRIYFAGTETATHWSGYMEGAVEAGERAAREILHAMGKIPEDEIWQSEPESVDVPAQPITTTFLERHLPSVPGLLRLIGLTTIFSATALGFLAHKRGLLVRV
Protocol: (§1) In vitro enzymatic screening toward ChEs was carried out according to the known Ellman’s protocol, by using eeAChE and esBChE as highly homologous and cheaper surrogates for human enzymes. The enzyme inhibition assays on human MAOs were performed by applying already reported methods.
(§2) All enzymes and reagents were purchased from Sigma Aldrich, Milan, Italy. Inhibition of human recombinant MAO A and B was assayed by monitoring the fluorescence of 4-hydroxyquinoline produced from the oxidation of substrate kynuramine, following a previously published method. Acetylcholinesterase from electric eel and butyrylcholinesterase from equine serum were used in the Ellman’s spectrophotometric method as already described. In all cases, a 96-well plate procedure was used with an Infinite M1000 Pro plate reader (Tecan, Cernusco sul Naviglio, Italy). Inhibition values were determined as IC50 values by statistical analysis using Prism (GraphPad Prism version 5.00 for Windows, GraphPad Software, San Diego, CA, USA).

human recombinant MAO A = biological target: T2, human recombinant MAO A (Homo sapiens, UniProt P21397); assay: biochemical; conditions: human recombinant MAO; for inhibition at 10 µM: read-out: MAO A % inhibition at 10 μM, mean ±SEM of three; for IC50: mean ±SEM of three independent experiments, read-out: MAO A IC50
T2 construct: purchased Sigma Aldrich, Milan, Italy
T2 sequence (P21397 1-527): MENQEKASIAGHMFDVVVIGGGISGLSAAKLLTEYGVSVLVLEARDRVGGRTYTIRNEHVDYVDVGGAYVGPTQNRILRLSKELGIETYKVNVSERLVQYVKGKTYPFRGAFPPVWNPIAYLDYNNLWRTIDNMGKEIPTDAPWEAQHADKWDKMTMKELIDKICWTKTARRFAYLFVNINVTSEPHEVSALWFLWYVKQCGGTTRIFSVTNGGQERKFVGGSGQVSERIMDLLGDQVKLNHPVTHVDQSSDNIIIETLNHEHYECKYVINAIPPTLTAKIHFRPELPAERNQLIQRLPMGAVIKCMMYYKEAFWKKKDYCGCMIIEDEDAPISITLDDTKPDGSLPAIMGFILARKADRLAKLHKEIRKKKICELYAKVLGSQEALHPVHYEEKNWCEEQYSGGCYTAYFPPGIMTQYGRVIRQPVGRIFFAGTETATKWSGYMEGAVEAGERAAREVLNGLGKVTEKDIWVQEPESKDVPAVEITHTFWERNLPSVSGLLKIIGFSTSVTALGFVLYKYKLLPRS
Protocol: as §1, §2

[1] = biological target: T3, Acetylcholinesterase from electric eel (Electrophorus electricus, UniProt O42275); assay: biochemical; assay type: biochemical; conditions: for IC50: AChE from electric eel, mean ±SEM of three
T3 construct: purchased Sigma Aldrich, Milan, Italy
T3 sequence (O42275 24-633): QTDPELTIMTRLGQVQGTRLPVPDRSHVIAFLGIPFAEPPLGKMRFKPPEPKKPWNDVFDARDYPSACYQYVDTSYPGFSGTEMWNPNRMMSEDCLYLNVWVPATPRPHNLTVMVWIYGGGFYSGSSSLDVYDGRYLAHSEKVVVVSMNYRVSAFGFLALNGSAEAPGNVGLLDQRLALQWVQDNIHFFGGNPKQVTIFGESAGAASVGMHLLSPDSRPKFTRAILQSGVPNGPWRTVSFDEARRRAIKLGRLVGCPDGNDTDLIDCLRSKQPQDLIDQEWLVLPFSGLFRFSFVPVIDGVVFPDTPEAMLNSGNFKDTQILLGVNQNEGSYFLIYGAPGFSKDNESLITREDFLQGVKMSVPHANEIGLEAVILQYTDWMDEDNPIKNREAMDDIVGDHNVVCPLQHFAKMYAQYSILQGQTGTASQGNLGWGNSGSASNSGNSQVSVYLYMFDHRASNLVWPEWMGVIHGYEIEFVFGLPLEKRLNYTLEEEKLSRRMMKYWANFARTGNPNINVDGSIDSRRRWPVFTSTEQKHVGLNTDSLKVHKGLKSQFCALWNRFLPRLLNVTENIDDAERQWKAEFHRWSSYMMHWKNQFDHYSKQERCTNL
Protocol: as §1, §2

[2] = biological target: T4, butyrylcholinesterase from equine serum (Equus caballus, UniProt P81908); assay: biochemical; assay type: biochemical; conditions: for IC50: BChE from equine serum, mean ±SEM of three; for inhibition at 10 µM: read-out: BChE % inhibition at 10 μM
T4 construct: butyrylcholinesterase from equine serum; purchased Sigma Aldrich, Milan, Italy; host or cells: equine serum
T4 sequence (P81908 whole entry): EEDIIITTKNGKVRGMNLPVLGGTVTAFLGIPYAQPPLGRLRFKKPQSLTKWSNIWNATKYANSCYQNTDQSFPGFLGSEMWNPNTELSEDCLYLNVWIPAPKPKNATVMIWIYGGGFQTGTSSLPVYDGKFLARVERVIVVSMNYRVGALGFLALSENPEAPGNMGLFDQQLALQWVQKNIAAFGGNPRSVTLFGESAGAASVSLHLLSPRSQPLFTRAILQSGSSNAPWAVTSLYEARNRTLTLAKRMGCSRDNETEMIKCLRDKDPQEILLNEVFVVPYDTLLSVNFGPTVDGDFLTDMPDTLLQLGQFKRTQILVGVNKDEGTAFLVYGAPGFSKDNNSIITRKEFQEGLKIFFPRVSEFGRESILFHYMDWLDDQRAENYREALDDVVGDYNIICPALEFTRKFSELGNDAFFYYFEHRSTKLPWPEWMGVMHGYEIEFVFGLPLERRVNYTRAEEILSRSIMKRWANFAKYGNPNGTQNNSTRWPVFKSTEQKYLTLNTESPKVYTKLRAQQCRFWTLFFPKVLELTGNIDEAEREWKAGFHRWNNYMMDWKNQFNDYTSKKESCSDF
Protocol: as §1, §2

Row | Structure (SMILES) | IC50 (human recombinant MAO B) | inhibition at 10 µM (human recombinant MAO A) [%] | IC50 [1] [µM] | AChE/MAO B IC50 ratio ([1]; eeAChE vs human MAO B) | IC50 [2] [µM] | BChE/MAO B IC50 ratio ([2]; esBChE vs human MAO B) | IC50 (human recombinant MAO A) [µM] | inhibition at 10 µM [2] [%] | inhibition at 10 µM ([1]; read-out: AChE % inhibition at 10 μM) [%]
1 | CN1CCN(Cc2cc(=O)oc3cc(OCc4cccc(Cl)c4)ccc23)CC1 [compound 16, 7-[(3-Chlorobenzyl)oxy]-4-[(4-methylpiperazin-1-yl)methyl]-2H-chromen-2-one] | 0.27 µM and 0.273 µM | 32 ± 5 | 3.1 ± 0.6 | 11 | 2.3 ± 0.9 | 9 | – | – | –
2 | CN(C)C(=O)CNCc1cc(=O)oc2cc(OCc3cccc(Cl)c3)ccc12 [compound 26, N^2-({7-[(3-Chlorobenzyl)oxy]-2-oxo-2H-chromen-4-yl}methyl)-N^1,N^1-dimethylglycinamide] | 0.03 ± 0.001 µM | – | 4.3 ± 0.6 | – | – | – | 2.5 ± 0.5 | 34 ± 2 | –
3 | C#CCNCc1cc(=O)oc2cc(OCc3cccc(Cl)c3)ccc12 [compound 22, 7-[(3-Chlorobenzyl)oxy]-4-[(prop-2-yn-1-ylamino)methyl]-2H-chromen-2-one] | 0.0041 ± 0.0011 µM | – | 2.1 ± 0.2 | – | – | – | 1.1 ± 0.1 | 33 ± 6 | –
4 | CNCc1cc(=O)oc2cc(OCc3cccc(Cl)c3)c(Cl)cc12 [compound 12, 6-Chloro-7-[(3-chlorobenzyl)oxy]-4-[(methylamino)methyl]-2H-chromen-2-one] | 1 ± 0.1 µM | 48 ± 1 | 7.9 ± 0.4 | – | – | – | – | 27 ± 2 | –
5 | O=c1cc(CN2CCCC2)c2ccc(OCc3cccc(Cl)c3)cc2o1 [compound 15, 7-[(3-chlorobenzyl)oxy]-4-(pyrrolidin-1-ylmethyl)-2H-chromen-2-one] | 0.152 ± 0.02 µM | – | 6.6 ± 0.9 | – | – | – | 1.12 ± 0.01 | 14 ± 2 | –
6 | NCc1cc(=O)oc2cc(OCc3cccc(Cl)c3)ccc12 [compound 18, 4-(aminomethyl)-7-[(3-chlorobenzyl)oxy]-2H-chromen-2-one] | 0.066 ± 0.015 µM | 46 ± 3 | 17 ± 4 | – | – | – | – | 20 ± 7 | –
7 | O=c1cc(CNCc2ccccc2)c2ccc(OCc3cccc(Cl)c3)cc2o1 [compound 13, 4-[(benzylamino)methyl]-7-[(3-chlorobenzyl)oxy]-2H-chromen-2-one] | 0.103 ± 0.001 µM | 24 ± 3 | 17 ± 1 | – | 3.4 ± 1.3 | – | – | – | –
8 | CN(Cc1ccccc1)Cc1cc(=O)oc2cc(OCc3cccc(Cl)c3)ccc12 [compound 14, 4-{[benzyl(methyl)amino]methyl}-7-[(3-chlorobenzyl)oxy]-2H-chromen-2-one] | 0.332 ± 0.026 µM | 28 ± 1 | 16 ± 1 | – | 6.3 ± 0.3 | – | – | – | –
9 | CNCc1cc(=O)oc2cc(OCc3ccc4c(c3)OCO4)ccc12 [compound 6, 7-(1,3-benzodioxol-5-ylmethoxy)-4-[(methylamino)methyl]-2H-chromen-2-one] | 0.0075 ± 0.0001 µM | – | 8.5 ± 1.8 | – | 3.4 ± 2.1 | – | 1.2 ± 0.1 | – | –
10 | CNCc1cc(=O)oc2cc(OCc3cc(OC)cc(OC)c3)ccc12 [compound 5, 7-[(3,5-Dimethoxybenzyl)oxy]-4-[(methylamino)methyl]-2H-chromen-2-one] | 0.067 ± 0.005 µM | – | 11 ± 2 | – | – | – | 1 ± 0.1 | 20 ± 4 | –
11 | CCCCNCc1cc(=O)oc2cc(OCc3cccc(Cl)c3)ccc12 [compound 21, 4-[(butylamino)methyl]-7-[(3-chlorobenzyl)oxy]-2H-chromen-2-one] | 0.164 ± 0.002 µM | 41 ± 3 | – | – | 4.8 ± 0.3 | – | – | – | 39 ± 1
